Test results published in PubChem BioAssay (NCI).
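Five concentrations, 48 hours, 96-well plates. GI50 = concentration required for 50% inhibition of growth. TGI denotes the concentration required for complete inhibition of growth.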

Columns and labels:
Experiment in all cases: growth of human tumour cells (NCI), 48 h
K-562 leukemia = tested on: K-562 leukemia
786-0 renal = tested on: 786-0 renal
HT29 colon = tested on: HT29 colon
HL-60(TB) leukemia = tested on: HL-60(TB) leukemia
EKVX NSCLC = tested on: EKVX NSCLC
UACC-257 melanoma = tested on: UACC-257 melanoma
MOLT-4 leukemia = tested on: MOLT-4 leukemia
NCI-H460 lung = tested on: NCI-H460 lung
SK-MEL-28 melanoma = tested on: SK-MEL-28 melanoma
OVCAR-4 ovarian = tested on: OVCAR-4 ovarian
A549 NSCLC = tested on: A549 NSCLC
IGROV1 ovarian = tested on: IGROV1 ovarian
OVCAR-8 ovarian = tested on: OVCAR-8 ovarian
SK-MEL-2 melanoma = tested on: SK-MEL-2 melanoma
CCRF-CEM leukemia = tested on: CCRF-CEM leukemia
HS 578T breast = tested on: HS 578T breast
M14 melanoma = tested on: M14 melanoma
SK-OV-3 ovarian = tested on: SK-OV-3 ovarian
NCI-H522 lung = tested on: NCI-H522 lung
UACC-62 melanoma = tested on: UACC-62 melanoma
HOP-92 NSCLC = tested on: HOP-92 NSCLC
RPMI-8226 leukemia = tested on: RPMI-8226 leukemia
OVCAR-5 ovarian = tested on: OVCAR-5 ovarian
MCF7 breast = tested on: MCF7 breast
MDA-MB-435 = tested on: MDA-MB-435
HCC-2998 colon = tested on: HCC-2998 colon
HOP-62 NSCLC = tested on: HOP-62 NSCLC
SNB-75 CNS = tested on: SNB-75 CNS
ACHN renal = tested on: ACHN renal
SF-268 CNS = tested on: SF-268 CNS
LOX IMVI melanoma = tested on: LOX IMVI melanoma
SW-620 colon = tested on: SW-620 colon
NCI/ADR-RES ovarian = tested on: NCI/ADR-RES ovarian
MDA-MB-231 breast = tested on: MDA-MB-231 breast
NCI-H23 lung = tested on: NCI-H23 lung
A498 renal = tested on: A498 renal
SF-539 CNS = tested on: SF-539 CNS
HCT-116 colon = tested on: HCT-116 colon
HCT-15 colon = tested on: HCT-15 colon
DU-145 prostate = tested on: DU-145 prostate
COLO 205 colon = tested on: COLO 205 colon
CAKI-1 renal = tested on: CAKI-1 renal
SNB-19 CNS = tested on: SNB-19 CNS
TK-10 renal = tested on: TK-10 renal
BT-549 breast = tested on: BT-549 breast
SN12C renal = tested on: SN12C renal
PC-3 prostate = tested on: PC-3 prostate
SR leukemia = tested on: SR leukemia
UO-31 renal = tested on: UO-31 renal
OVCAR-3 ovarian = tested on: OVCAR-3 ovarian
KM12 colon = tested on: KM12 colon
U251 CNS = tested on: U251 CNS
T-47D breast = tested on: T-47D breast
SK-MEL-5 melanoma = tested on: SK-MEL-5 melanoma
RXF 393 renal = tested on: RXF 393 renal
SF-295 CNS = tested on: SF-295 CNS
MALME-3M melanoma = tested on: MALME-3M melanoma
NCI-H226 lung = tested on: NCI-H226 lung

In the case of `O=C(Nc1cccc(Cl)c1)c1cc(Cl)ccc1O`, the GI50 (K-562 leukemia) is reported as 0.542 µM, the TGI (K-562 leukemia) is reported as over 100 µM and the GI50 (786-0 renal) is reported as 1.63 µM. For the same compound, the TGI (786-0 renal) was 6.18 µM, the GI50 (HT29 colon) was 2.49 µM and the TGI (HT29 colon) was 7.12 µM. It also gave a GI50 (HL-60(TB) leukemia) of 0.561 µM, a TGI (HL-60(TB) leukemia) of 3.6 µM and a GI50 (EKVX NSCLC) of 1.83 µM. It also gave a TGI (EKVX NSCLC) of over 26.3 µM, a GI50 (UACC-257 melanoma) of 0.41 µM and a TGI (UACC-257 melanoma) of 2.87 µM. It also gave a GI50 (MOLT-4 leukemia) of 1.84 µM, a TGI (MOLT-4 leukemia) of 5.04 µM and a GI50 (NCI-H460 lung) of 0.488 µM. The TGI (NCI-H460 lung) was 6.4 µM, the GI50 (SK-MEL-28 melanoma) was 0.415 µM and the TGI (SK-MEL-28 melanoma) was 3.77 µM. The GI50 (OVCAR-4 ovarian) was 1.46 µM, the TGI (OVCAR-4 ovarian) was over 100 µM and the GI50 (A549 NSCLC) was 2.67 µM. It also gave a TGI (A549 NSCLC) of over 79.3 µM, a GI50 (IGROV1 ovarian) of 1.61 µM and a TGI (IGROV1 ovarian) of over 58 µM. It also gave a GI50 (OVCAR-8 ovarian) of 1.51 µM, a TGI (OVCAR-8 ovarian) of 5.43 µM and a GI50 (SK-MEL-2 melanoma) of 0.294 µM. It also gave a TGI (SK-MEL-2 melanoma) of 0.918 µM, a GI50 (CCRF-CEM leukemia) of 2.82 µM and a TGI (CCRF-CEM leukemia) of 22 µM. It also gave a GI50 (HS 578T breast) of 0.282 µM, a TGI (HS 578T breast) of 1.46 µM and a GI50 (M14 melanoma) of 0.851 µM. It also gave a TGI (M14 melanoma) of 5.4 µM, a GI50 (SK-OV-3 ovarian) of 0.582 µM and a TGI (SK-OV-3 ovarian) of 2.81 µM. For the same compound, the GI50 (NCI-H522 lung) was 0.32 µM, the TGI (NCI-H522 lung) was 1.78 µM and the GI50 (UACC-62 melanoma) was 0.282 µM. It also gave a TGI (UACC-62 melanoma) of 1.21 µM, a GI50 (HOP-92 NSCLC) of 0.169 µM and a TGI (HOP-92 NSCLC) of 0.571 µM. It also gave a GI50 (RPMI-8226 leukemia) of 0.375 µM, a TGI (RPMI-8226 leukemia) of 2.18 µM and a GI50 (OVCAR-5 ovarian) of 3.48 µM. For the same compound, the TGI (OVCAR-5 ovarian) was over 100 µM, the GI50 (MCF7 breast) was 1.75 µM and the TGI (MCF7 breast) was over 26.6 µM. For the same compound, the GI50 (MDA-MB-435) was 0.661 µM, the TGI (MDA-MB-435) was 5.99 µM and the GI50 (HCC-2998 colon) was 2.94 µM. The TGI (HCC-2998 colon) was over 29.6 µM, the GI50 (HOP-62 NSCLC) was 1.33 µM and the TGI (HOP-62 NSCLC) was 4.03 µM. The GI50 (SNB-75 CNS) was 0.756 µM, the TGI (SNB-75 CNS) was 3.86 µM and the GI50 (ACHN renal) was 1.14 µM. It also gave a TGI (ACHN renal) of 10.6 µM, a GI50 (SF-268 CNS) of 1.21 µM and a TGI (SF-268 CNS) of over 40.3 µM. For the same compound, the GI50 (LOX IMVI melanoma) was 0.543 µM, the TGI (LOX IMVI melanoma) was 2.26 µM and the GI50 (SW-620 colon) was 1.36 µM. For the same compound, the TGI (SW-620 colon) was 9.85 µM, the GI50 (NCI/ADR-RES ovarian) was 1.64 µM and the TGI (NCI/ADR-RES ovarian) was over 29.4 µM. It also gave a GI50 (MDA-MB-231 breast) of 1.15 µM, a TGI (MDA-MB-231 breast) of 8.23 µM and a GI50 (NCI-H23 lung) of 0.486 µM. It also gave a TGI (NCI-H23 lung) of 3.55 µM, a GI50 (A498 renal) of 0.256 µM and a TGI (A498 renal) of 0.764 µM. The GI50 (SF-539 CNS) was 0.674 µM, the TGI (SF-539 CNS) was 12.4 µM and the GI50 (HCT-116 colon) was 0.562 µM. For the same compound, the TGI (HCT-116 colon) was 2.12 µM, the GI50 (HCT-15 colon) was 1.34 µM and the GI50 (DU-145 prostate) was 1.66 µM. For the same compound, the TGI (DU-145 prostate) was over 54.1 µM, the GI50 (COLO 205 colon) was 2.64 µM and the TGI (COLO 205 colon) was 6.71 µM. The GI50 (CAKI-1 renal) was 0.837 µM, the TGI (CAKI-1 renal) was 5.79 µM and the GI50 (SNB-19 CNS) was 0.481 µM. It also gave a TGI (SNB-19 CNS) of 36.6 µM, a GI50 (TK-10 renal) of 4.36 µM and a TGI (TK-10 renal) of 12.6 µM. It also gave a GI50 (BT-549 breast) of 0.362 µM, a TGI (BT-549 breast) of 1.29 µM and a GI50 (SN12C renal) of 0.491 µM. For the same compound, the TGI (SN12C renal) was 4.15 µM, the GI50 (PC-3 prostate) was 2.6 µM and the TGI (PC-3 prostate) was over 25.2 µM. For the same compound, the GI50 (SR leukemia) was 0.457 µM, the TGI (SR leukemia) was 2.96 µM and the GI50 (UO-31 renal) was 0.369 µM. The TGI (UO-31 renal) was 7.08 µM, the GI50 (OVCAR-3 ovarian) was 1.04 µM and the TGI (OVCAR-3 ovarian) was over 100 µM. The GI50 (KM12 colon) was 2.39 µM, the TGI (KM12 colon) was 6.87 µM and the GI50 (U251 CNS) was 0.841 µM. For the same compound, the TGI (U251 CNS) was over 38.2 µM, the GI50 (T-47D breast) was 1.24 µM and the TGI (T-47D breast) was 7.38 µM. The GI50 (SK-MEL-5 melanoma) was 0.274 µM, the TGI (SK-MEL-5 melanoma) was 0.857 µM and the GI50 (RXF 393 renal) was 0.849 µM. The TGI (RXF 393 renal) was 4.27 µM, the GI50 (SF-295 CNS) was 1.21 µM and the TGI (SF-295 CNS) was 3.75 µM. It also gave a GI50 (MALME-3M melanoma) of 0.4 µM, a TGI (MALME-3M melanoma) of 2.66 µM and a GI50 (NCI-H226 lung) of 1.05 µM. The TGI (NCI-H226 lung) was 4.12 µM.
